# Experiments:
# human ORL1 receptor = target: T1, human ORL1 receptor (Homo sapiens, UniProt P41146); test: ORL1-Receptor Binding Assay ([3H]nociceptin, SPA)
# T1 construct: expressed in transfected cells; host or cells: HEK-293
# Procedure: ORL1-Receptor Binding Assay:
# The human ORL1 receptor transfected HEK-293 cell membranes were incubated for 45 min at 22° C. with 0.4 nM [^3H]nociceptin, 1.0 mg of wheat germ agglutinin-coated SPA beads and various concentrations of test compounds in a final volume of 200 μl of 50 mM HEPES buffer pH 7.4 containing 10 mM MgCl2 and 1 mM EDTA. Non-specific binding was determined by the addition of 1 μM unlabeled nociceptin. After the reaction, the assay plate was centrifuged at 1,000 rpm for 1 min and then the radioactivity was measured by a Liquid Scintillation Counter.
# (§1) Each percent […] binding thus obtained is graphed as a function of compound concentration. A sigmoidal curve is used to determine 50% bindings (i.e., IC50 values).
# human Mu receptor = target: T2, human Mu receptor (Homo sapiens, UniProt P35372); test: μ-Receptor Binding Assay ([3H]DAMGO, SPA); details: human Mu receptor transfected CHO-K1 cell membranes, 1.0 nM [3H]DAMGO
# T2 construct: expressed in transfected cells; host or cells: CHO-K1
# T2 sequence (P35372 whole entry): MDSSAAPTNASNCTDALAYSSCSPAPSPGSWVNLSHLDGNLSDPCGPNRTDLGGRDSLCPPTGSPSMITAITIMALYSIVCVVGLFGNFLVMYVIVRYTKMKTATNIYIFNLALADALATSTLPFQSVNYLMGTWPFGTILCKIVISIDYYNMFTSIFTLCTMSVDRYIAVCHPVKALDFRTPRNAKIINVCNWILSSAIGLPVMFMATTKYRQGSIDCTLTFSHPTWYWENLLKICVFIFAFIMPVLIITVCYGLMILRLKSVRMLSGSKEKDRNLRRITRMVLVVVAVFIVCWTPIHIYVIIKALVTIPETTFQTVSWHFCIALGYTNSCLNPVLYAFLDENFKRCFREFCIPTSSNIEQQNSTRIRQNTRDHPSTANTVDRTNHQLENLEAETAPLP
# Procedure: μ-Receptor Binding Assay:
# The human Mu receptor transfected CHO-K1 cell membranes were incubated for 45 min at 22° C. with 1.0 nM [^3H]DAMGO, 1.0 mg of wheat germ agglutinin-coated SPA beads and various concentrations of test compounds in a final volume of 200 μl of 50 mM Tris-HCl buffer pH 7.4 containing 5 mM MgCl2. Non-specific binding was determined by the addition of 1 μM unlabeled DAMGO. After the reaction, the assay plate was centrifuged at 1,000 rpm for 1 min and then the radioactivity was measured by a Liquid Scintillation Counter.
# as §1
# T1 sequence (P41146 whole entry): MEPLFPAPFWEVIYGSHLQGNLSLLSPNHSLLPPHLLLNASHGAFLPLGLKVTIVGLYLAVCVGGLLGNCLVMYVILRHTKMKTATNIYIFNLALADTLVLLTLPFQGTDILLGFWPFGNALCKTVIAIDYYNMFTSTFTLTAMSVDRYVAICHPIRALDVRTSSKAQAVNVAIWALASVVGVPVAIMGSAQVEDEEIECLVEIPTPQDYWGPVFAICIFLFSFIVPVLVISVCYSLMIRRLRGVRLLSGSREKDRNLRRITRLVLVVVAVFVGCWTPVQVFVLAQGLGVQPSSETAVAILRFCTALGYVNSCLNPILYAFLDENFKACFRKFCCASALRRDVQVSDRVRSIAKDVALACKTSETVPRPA
structure (smiles),measurement,setting,value
"O=c1oc2ccccc2n1CCCN1CCC2(CCc3ccccc32)CC1 [Example 9, 2,3-Dihydro-1′-[3-(2-oxo-1,3-benzoxazol-3(2H)-yl)propyl]spiro[1H-indene-1,4′-piperidine]]",IC50,human ORL1 receptor,89 nM
same,"selectivity of binding affinity, ORL-1 receptor versus mu-receptor (in words)",human ORL1 receptor; comparison of ORL1 and mu binding assays,selective affinity for ORL-1 receptor over mu-receptor
same,IC50,human Mu receptor,871 nM

# Source: US20030078278A1, “Spiropiperidine compounds as ligands for ORL-1 receptor” (Pfizer Inc., priority 2001, published 2003)
